Results on 2 molecules are retold here after PMC6201195, “The Xylulose 5-Phosphate/Phosphate Translocator Supports Triose Phosphate, but Not Phosphoenolpyruvate Transport Across the Inner Envelope Membrane of Plastids in Arabidopsis thaliana Mutant Plants” (Frontiers in Plant Science, 2018).

The target of data set [1] is T1, XPT (xylulose 5-phosphate/phosphate translocator) (Arabidopsis thaliana, UniProt Q9LF61).
T1 construct: full-length XPT cDNA, His-tag (pYES-DEST52), expressed in Saccharomyces cerevisiae InvSC; yeast membranes reconstituted into proteoliposomes, tag kept
T1 sequence (Q9LF61 1-417 limits assumed): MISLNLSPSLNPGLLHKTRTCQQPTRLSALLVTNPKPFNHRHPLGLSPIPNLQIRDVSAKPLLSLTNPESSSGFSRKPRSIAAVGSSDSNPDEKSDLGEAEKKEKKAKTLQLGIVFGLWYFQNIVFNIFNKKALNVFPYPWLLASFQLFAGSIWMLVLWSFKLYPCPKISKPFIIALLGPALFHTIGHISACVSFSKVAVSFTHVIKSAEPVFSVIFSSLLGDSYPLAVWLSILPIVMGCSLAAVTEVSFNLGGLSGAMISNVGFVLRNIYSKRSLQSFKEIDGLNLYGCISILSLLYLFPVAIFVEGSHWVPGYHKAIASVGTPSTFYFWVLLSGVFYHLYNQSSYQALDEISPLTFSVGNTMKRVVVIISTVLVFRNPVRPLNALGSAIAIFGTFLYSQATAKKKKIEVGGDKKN
Put plainly: inhibition of homologous […]/[…] exchange in proteoliposomes with reconstituted yeast membranes. The format is biochemical. Conditions: external pH 7.0; 0.14 mM 32Pi; hyperbolic fit; alternative transport substrate.

Substrate in data set [2]: O=P(O)(O)O
Kind of data set: cells, lysate or membranes. Conditions: external pH 7.0, internal pH 7.8; counter-exchange; labelled compound.

`C=C(OP(=O)(O)O)C(=O)O` [PEP]: the “Ki(app)” value in data set [1] is 3.76 ± 0.39 mM.

B1: XPT (xylulose 5-phosphate/phosphate translocator) (Arabidopsis thaliana) (protein)
chain: MISLNLSPSLNPGLLHKTRTCQQPTRLSALLVTNPKPFNHRHPLGLSPIPNLQIRDVSAKPLLSLTNPESSSGFSRKPRSIAAVGSSDSNPDEKSDLGEAEKKEKKAKTLQLGIVFGLWYFQNIVFNIFNKKALNVFPYPWLLASFQLFAGSIWMLVLWSFKLYPCPKISKPFIIALLGPALFHTIGHISACVSFSKVAVSFTHVIKSAEPVFSVIFSSLLGDSYPLAVWLSILPIVMGCSLAAVTEVSFNLGGLSGAMISNVGFVLRNIYSKRSLQSFKEIDGLNLYGCISILSLLYLFPVAIFVEGSHWVPGYHKAIASVGTPSTFYFWVLLSGVFYHLYNQSSYQALDEISPLTFSVGNTMKRVVVIISTVLVFRNPVRPLNALGSAIAIFGTFLYSQATAKKKKIEVGGDKKN
On to B1, for which the Km (usually the concentration of substrate that gives half-maximal velocity) in data set [2] was 400 ± 70 µM.
